Paper PMC3466269, “A Comprehensive Strategy to Discover Inhibitors of the Translesion Synthesis DNA Polymerase κ” (PLoS ONE, 2012)

Columns and labels:
[1] = target: T1, Yeast pol δ (Saccharomyces cerevisiae, UniProt P15436); assay: Radioactive gel-based primer extension assay, pol δ; type: biochemical
T1 sequence (P15436 1-1097): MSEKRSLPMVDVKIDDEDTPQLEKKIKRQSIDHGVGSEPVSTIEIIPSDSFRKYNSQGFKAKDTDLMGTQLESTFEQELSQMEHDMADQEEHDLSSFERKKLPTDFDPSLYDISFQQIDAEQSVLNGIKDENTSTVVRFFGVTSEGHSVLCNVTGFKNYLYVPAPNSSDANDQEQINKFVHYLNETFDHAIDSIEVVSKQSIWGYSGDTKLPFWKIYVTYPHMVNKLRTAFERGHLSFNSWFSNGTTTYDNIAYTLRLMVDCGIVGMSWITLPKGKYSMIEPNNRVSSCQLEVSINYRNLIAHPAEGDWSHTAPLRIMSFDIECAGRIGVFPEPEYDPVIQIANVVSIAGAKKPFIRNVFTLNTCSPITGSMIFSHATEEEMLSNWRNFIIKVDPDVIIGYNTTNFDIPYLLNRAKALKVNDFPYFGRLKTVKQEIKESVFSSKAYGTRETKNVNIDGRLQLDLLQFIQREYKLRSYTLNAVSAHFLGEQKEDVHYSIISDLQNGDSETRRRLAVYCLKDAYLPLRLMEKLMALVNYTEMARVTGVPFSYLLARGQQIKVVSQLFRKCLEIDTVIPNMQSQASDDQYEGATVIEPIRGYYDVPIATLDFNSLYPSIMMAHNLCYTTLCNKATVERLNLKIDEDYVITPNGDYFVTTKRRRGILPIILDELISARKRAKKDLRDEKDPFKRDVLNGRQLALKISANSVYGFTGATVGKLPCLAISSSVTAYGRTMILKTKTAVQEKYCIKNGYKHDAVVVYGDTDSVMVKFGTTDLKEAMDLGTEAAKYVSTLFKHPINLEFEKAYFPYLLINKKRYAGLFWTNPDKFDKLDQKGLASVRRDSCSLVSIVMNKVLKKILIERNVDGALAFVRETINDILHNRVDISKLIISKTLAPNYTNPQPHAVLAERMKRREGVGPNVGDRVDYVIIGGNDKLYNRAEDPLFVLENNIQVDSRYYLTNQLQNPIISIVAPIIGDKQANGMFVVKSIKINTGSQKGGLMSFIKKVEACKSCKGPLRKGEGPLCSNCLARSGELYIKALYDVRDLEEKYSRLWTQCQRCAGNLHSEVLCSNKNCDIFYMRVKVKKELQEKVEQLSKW
T1 sequence (P46957 1-487 partner): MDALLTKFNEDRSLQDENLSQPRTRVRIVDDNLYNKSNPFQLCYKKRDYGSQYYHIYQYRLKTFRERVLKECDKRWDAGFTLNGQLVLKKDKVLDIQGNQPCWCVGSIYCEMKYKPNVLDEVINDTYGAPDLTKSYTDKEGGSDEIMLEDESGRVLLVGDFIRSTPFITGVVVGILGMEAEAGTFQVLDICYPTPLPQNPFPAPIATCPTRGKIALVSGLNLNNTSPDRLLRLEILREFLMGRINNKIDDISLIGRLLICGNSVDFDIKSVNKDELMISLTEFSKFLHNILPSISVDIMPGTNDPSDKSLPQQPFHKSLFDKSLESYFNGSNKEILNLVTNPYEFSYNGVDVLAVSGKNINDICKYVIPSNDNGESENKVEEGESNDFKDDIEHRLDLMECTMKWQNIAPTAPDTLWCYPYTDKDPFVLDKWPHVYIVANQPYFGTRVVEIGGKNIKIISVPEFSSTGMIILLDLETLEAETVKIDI
T1 sequence (P47110 1-350 partner): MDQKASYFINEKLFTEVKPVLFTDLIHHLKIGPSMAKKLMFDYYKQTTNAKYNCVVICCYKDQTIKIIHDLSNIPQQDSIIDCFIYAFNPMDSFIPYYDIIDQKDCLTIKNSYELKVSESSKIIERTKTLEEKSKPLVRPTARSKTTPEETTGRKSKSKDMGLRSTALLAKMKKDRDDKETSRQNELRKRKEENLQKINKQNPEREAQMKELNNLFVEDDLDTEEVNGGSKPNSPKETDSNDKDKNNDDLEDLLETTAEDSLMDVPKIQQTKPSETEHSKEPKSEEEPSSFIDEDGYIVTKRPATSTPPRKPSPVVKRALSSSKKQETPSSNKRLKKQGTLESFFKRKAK
Description: The reactions with pol κ, pol η, and pol ι were carried out in the buffers containing 25 mM Tris-HCl, pH 7.5, 8 mM MgCl2, 10% glycerol, 100 µg/mL bovine serum albumin, and 5 mM DTT. Buffers for pol δ reactions contained 40 mM Hepes-KOH, pH 6.8, 10% glycerol, 200 µg/mL bovine serum albumin, 1 mM DTT, and 8 mM MgCl2. Final concentration of pol κ, pol η, pol ι, or pol δ in the reaction was 0.25 nM, 1 nM, 2.5 nM, or 4 nM, respectively. In this assay, a polymerase was preincubated with the compound for 15 min at room temperature. Primer extensions were then initiated by the addition of DNA substrate at final concentration of 5 nM and carried out for 30 min at room temperature in the presence of 100 µM dCTP and dGTP. The reactions were terminated by the addition of an equal volume of a dye solution containing 95% (v/v) formamide, 10 mM EDTA, 0.03% (w/v) xylene cyanol, and 0.03% (w/v) bromphenol blue. Reaction products were separated through a 15% acrylamide gel containing 8 M urea and visualized with a PhosphorImager screen. The ratio of extended primer to the total amount of primer was measured using ImageQuant 5.2 software to calculate the percentage of primer extended. IC50 values were determined by fitting the data to variable slope four-parameter equations using GraphPad Prism 5. […]

[2] = system: XP30RO cells (XP-V); assay: Cell survival assay, CellTiter-Glo Luminescent Cell Viability Assay, with or without UV; type: cell-based, Human; settings: CellTiter-Glo (ATP content); 24 µM, UV 1.5, 4.5 or 7.5 J/m^2
From the text: Supplementary file pone.0045032.s001.tif: Figure S1 Effect of candesartan cilexetil on UV-induced cytotoxicity using CellTiter-Glo Luminescent Cell Viability Assay. […] I: candesartan cilexetil. (TIF) Click here for additional data file.

CCOc1nc2cccc(C(=O)OC(C)OC(=O)OC3CCCCC3)c2n1Cc1ccc(-c2ccccc2-c2nnn[nH]2)cc1 (stereo not drawn) [candesartan cilexetil, Candesartan cilexetil]
IC50 pol δ ([1]; maximum concentration 80 µM): could not be determined | Inhibition of pol δ DNA synthesis ([1]; several concentrations, maximum 80 µM, data not shown): only at 80 µM concentration was there detectable inhibition | Effect on UV-induced cytotoxicity [2]: comparable results were obtained
